Test results: patent US10538443B2, “Method of degradation and inactivation of antibiotics in water by immobilized enzymes onto functionalized supports” (Luxembourg Institute of Science and Technology (LIST), priority 2014, dated 2020)
Positions of bridges follow the written chain, without caps; N, C: chain ends. Non-standard residues stand in square brackets, D forms with d. Residues, ends and D or L forms follow the SMILES beside them. *: point of attachment. Ileψ(thiazoline)Cys = CC[C@H](C)[C@H](N)C1=N[C@H](C(=O)*)CS1; dOrn = NCCC[C@@H](N)C(=O)O

Columns and labels:
[1] = target: T1, NDM-1 (Klebsiella pneumoniae, UniProt C7C422); type: biochemical, K. pneumoniae; settings: free NDM-1 300 μg·ml^−1, antibiotic 100 μg·ml^−1, final volume 1 mL, deionized water, HEPES 12.5 mM, room temperature, 100 rpm
T1 construct: His tag (inferred from the HisTrap FF purification and the pOPINF vector; no tag is printed as such); made in house; host or cells: Escherichia coli BL21 2D3
Description: The production of protein performed as described by Green V. L. et al. (Acta Crystallogr. 2011, F67, 1160-1164) with few modifications: An additional step of freezing is added before cell lysis with French press. The NDM-1 isolation and purification are only performed with HisTrap FF column (GE Healthcare). Three washes in Amicon® Ultra-4 Centrifugal Filter Units 3,000 NMWL (1000×g for 15 min) allow to remove excess imidazole. Enzymes are then re-suspended in PBS.
(§1) Degradation experiments have been performed, using a concentration of free NDM-1 enzyme of 300 μg·ml^−1 in an aqueous medium comprising deionized water and HEPES 12.5 mM. Antibiotic is added at final concentration of 100 μg·ml^−1 (final volume: 1 mL). Degradation assay are performed under agitation of 100 rpm at room temperature during 1 hour. UV absorbance measurements are achieved to determine the evolution of the concentration of the antibiotics in the medium.

[2] = Autolysis of antibiotic after 1 hour; type: physicochemical; settings: antibiotic 100 μg·ml^−1, deionized water, HEPES 12.5 mM, room temperature
Description: as §1

[3] = tested on: Selenastrum capricornutum; assay: Acute toxicity test on microalgae (ISO 8692: 2012), growth inhibition; type: cell-based; settings: 90 μg·mL^−1
Description: (§2) For this, the tests were carried out on the degradation media before (T0) and after metabolization by enzymes immobilized on PGMA and DOPA functionalized Kaldnes after 30 min, 1 h and 24 h of contact.
(§3) The tests are performed with the maximum volume of test solution that can be provided and defined by the standards cited earlier. The results are expressed as a percentage of growth inhibition for algae and Daphnia test, as percentage of light emission inhibition for the Microtox test and as percentage of cell viability inhibition for cytotoxicity tests.

[4] = tested on: Daphnia magna Straus; assay: Daphnia acute toxicity test (ISO 6341: 2012); type: in vivo; settings: amoxicillin 90 μg·mL^−1; T0 (before metabolization by enzymes)
Description: as §2, §3

[5] = tested on: Vibrio fischeri; settings: 0 min, 80 μg·mL^−1
Description: as §2, §3

[6] = tested on: rat hepatoma cell line H4IIE.Luc; assay: Cytotoxicity test, Cell Viability Assay AlamarBlue; type: cell-based; settings: amoxicillin 80 μg·mL^−1; T0 (before metabolization by enzymes)
Description: as §2, §3

[7] = Degradation of amoxicillin (100 μg/ml) in filtered tap water with HEPES by immobilized or free enzyme, UV absorbance every 24 hours; type: biochemical
Description: Once the Kaldnes carriers have been activated according to the above protocol, the enzymatic activity is measured. Two antibiotics present in an aqueous medium have been tested.
A sample of tap water, prealably filtered on a syringe filter unit (disposable pore size of 0.22 μm) and with HEPES (12.5 mM), and the antibiotics at a concentration of 100 μg/ml.
For comparison purposes, degradation of the antibiotic with the free enzyme will be tested. The sample of tap water, prealably filtered on a syringe filter unit (disposable pore size of 0.22 μm) and with HEPES (12.5 mM), and the antibiotics at a concentration of 100 μg·ml^−1, is prepared.
UV absorbance measurements are achieved to determine the evolution of the concentration of the antibiotics. […] The absorbance, and the thus the concentration, is determined every 24 hours.

[8] = Storage of the Kaldnes carriers at 4° C., length of preservation of activity; type: physicochemical
Description: The biofunctionalized Kaldnes carriers, after being dried, have been kept in the fridge at 4° C. Antibiotics degradation tests were performed onto the carriers to measure the activity.

[9] = Kaldnes biochips, PGMA based layer, Tween 20 (5%), enzyme 1.985 mg
[10] = Kaldnes biochips, dopamine as layer precursor, no Tween 20, enzyme 1.985 mg
[11] = enzyme in its free form 2 mg, no Tween 20

Q: Which results are given for `CC1(C)S[C@@H]2[C@H](NC(=O)[C@H](N)c3ccc(O)cc3)C(=O)N2[C@H]1C(=O)O` [amoxicillin]?
A: degraded amount after 1 hour [1]: 10 ± 2 µg; Autolysis of antibiotic after 1 hour [2]: 0 µg/mL; Percentage of inhibition, Alga test ([3]; 0 min): 55 ± 6%; Percentage of inhibition, Alga test ([3]; 24 h): 0%; Percentage of inhibition, Daphnia Test [4]: 56 ± 4%; Percentage of inhibition, Microtox [5]: 41 ± 12%; Percentage of inhibition, Cell Viability Assay [6]: 19 ± 5%

Q: For `CCC[C@@H]1C[C@@H](C(=O)N[C@@H]([C@H]2O[C@H](SC)[C@H](O)[C@@H](O)[C@H]2O)[C@@H](C)O)N(C)C1` [lincomycin], which “degraded amount after 1 hour” value [1] is on record?
A: Its value is 5 ± 1.5 µg.

Q: And the “Autolysis of antibiotic after 1 hour” value [2]?
A: Its value is 0.01 µg/mL.

Q: For `CC[C@H](C)[C@H](N)C1=N[C@H](C(=O)N[C@@H](CC(C)C)C(=O)N[C@H](CCC(=O)O)C(=O)N[C@H](C(=O)N[C@H]2CCCCNC(=O)[C@H](CC(N)=O)NC(=O)[C@@H](CC(=O)O)NC(=O)[C@H](Cc3cnc[nH]3)NC(=O)[C@@H](Cc3ccccc3)NC(=O)[C@H]([C@@H](C)CC)NC(=O)[C@@H](CCCN)NC2=O)[C@@H](C)CC)CS1` [bacitracin] ({Ileψ(thiazoline)Cys}-L[dE]IK[dOrn]I[dF]H[dD]N; lactam 4-C), which “degraded amount after 1 hour” value [1] is on record?
A: Its value is 5 ± 0.8 µg.

Q: And the “Autolysis of antibiotic after 1 hour” value [2]?
A: The value was 0 µg/mL.

Q: Which “degraded amount after 1 hour” value [1] does the source give for `Cc1cc(NS(=O)(=O)c2ccc(N)cc2)no1` [sulfamethoxazole] here?
A: Its value is 3.2 ± 0.8 µg.

Q: And the “Autolysis of antibiotic after 1 hour” value [2]?
A: Its value is 0 µg/mL.

Q: For `COc1cc(Cc2cnc(N)nc2N)cc(OC)c1OC` [trimethoprime], which “degraded amount after 1 hour” value [1] is on record?
A: The value was 2.5 ± 0.95 µg.

Q: And the “Autolysis of antibiotic after 1 hour” value [2]?
A: The value was 0.01 µg/mL.

Q: With `CC[C@H]1OC(=O)C[C@@H](O)[C@H](C)[C@@H](O[C@@H]2O[C@H](C)[C@@H](O[C@H]3C[C@@](C)(O)[C@@H](O)[C@H](C)O3)[C@H](N(C)C)[C@H]2O)[C@@H](CC=O)C[C@@H](C)C(=O)/C=C/C(C)=C/[C@@H]1CO[C@@H]1O[C@H](C)[C@@H](O)[C@@H](OC)[C@H]1OC` [tylosine] as the molecule, how does the “degraded amount after 1 hour” value [1] read?
A: The value was 7.4 ± 1.1 µg.

Q: And the “Autolysis of antibiotic after 1 hour” value [2]?
A: Its value is 0.01 µg/mL.

Q: With `CC[C@H]1OC(=O)[C@H](C)[C@@H](O[C@H]2C[C@@](C)(OC)[C@@H](O)[C@H](C)O2)[C@H](C)[C@@H](O[C@@H]2O[C@H](C)C[C@H](N(C)C)[C@H]2O)[C@](C)(O)C[C@@H](C)C(=O)[C@H](C)[C@@H](O)[C@]1(C)O` [erythromycin] as the molecule, how does the “degraded amount after 1 hour” value [1] read?
A: The value was 6.8 ± 2.3 µg.

Q: What about the “Autolysis of antibiotic after 1 hour” value [2] of the same molecule?
A: The value was 0 µg/mL.

B1: NDM-1: New-Dehli metallo-β-lactamase 1, K. pneumoniae gene produced in E. coli BL21 2D3, used free or immobilized on Kaldnes biochips (protein, UniProt C7C422 29-270, looked up)
Metallo-beta-lactamase type 2: GEIRPTIGQQMETGDQRFGDLVFRQLAPNVWQHTSYLDMPGFGAVASNGLIVRDGGRVLVVDTAWTDDQTAQILNWIKQEINLPVALAVVTHAHQDKMGGMDALHAAGIATYANALSNQLAPQEGMVAAQHSLTFAANGWVEPATAPNFGPLKVFYPGPGHTSDNITVGIDGTDIAFGGCLIKDSKAKSLGNLGDADTEHYAASARAFGAAFPKASMIVMSHSAPDSRAAITHTARMADKLR
Q: Which results are given for B1?
A: Amount of degraded amoxicillin [7, 9]: 3502 ± 191 µg; Duration of activity [7, 9]: 22 days; Amount of degraded amoxicillin [7, 10]: 3021 ± 51 µg; Duration of activity [7, 10]: 10 days; amount of amoxicillin degraded, immobilized versus free form ([7]; Kaldnes carrier, Table V): about 8 times; Amount of degraded amoxicillin [7, 11]: 390 ± 45 µg; Duration of activity [7, 11]: 4 days; Length of preservation ([8]; stored as Kaldnes + PGMA): 1 month; Length of preservation ([8]; stored as Kaldnes + PGMA + enzyme): 2 months; Length of preservation ([8]; stored as Kaldnes + PGMA + enzyme + Tween 20): 2 weeks; Length of preservation ([8]; stored as Kaldnes + dopamine): 3 weeks; Length of preservation ([8]; stored as Kaldnes + dopamine + enzyme): 1 month; Length of preservation ([8]; stored as Kaldnes + dopamine + enzyme + Tween 20): 2 weeks
